Source: patent publication US20220096516A1, “OLIGONUCLEOTIDE MOLECULE AND APPLICATION THEREOF IN TUMOR THERAPY” (Ractigen Therapeutics, priority 2019, published 2022)
d = 2'-deoxy (DNA); r = 2'-OH (RNA)

Tested on: LHPP gene
Test: High-throughput screening of saRNAs targeting LHPP promoter: LHPP mRNA by one-step RT-qPCR in Huh7 cells
Format: cell-based, human
Conditions: 10 nM saRNA, 72 hours, relative to control (Mock)
Method in brief: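 Huh7 cells were transfected with 10 nM saRNA using RNAiMax and lysed 72 h later. LHPP mRNA was quantified by one-step RT-qPCR in triplicate wells. Expression was normalised to HPRT1 and TBP and given as fold change versus mock-transfected cells.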

Row | Substance | Fold of changes in relative LHPP mRNA expression level | Fold of changes in relative LHPP mRNA expression level (log2)
1 | RAG7-174: saRNA duplex; sense UGCCUUUGACCUUUCUUAGTT (SEQ ID NO: 49), antisense CUAAGAAAGGUCAAAGGCATT (SEQ ID NO: 213) (sugars from the 5' end r19 d2, backbone not given here) | 1.38 fold | 0.47 log2
2 | RAG7-179: saRNA duplex; sense CAAUUUGCCUUUGACCUUUTT (SEQ ID NO: 39), antisense AAAGGUCAAAGGCAAAUUGTT (SEQ ID NO: 203) (sugars from the 5' end r19 d2, backbone not given here) | 1.45 fold | 0.53 log2
3 | RAG7-138: saRNA duplex; sense UUCCUGCUCUUUGUCCGCUTT (SEQ ID NO: 53), antisense AGCGGACAAAGAGCAGGAATT (SEQ ID NO: 217) (sugars from the 5' end r19 d2, backbone not given here) | 1.36 fold | 0.45 log2
4 | RAG7-126: saRNA duplex; sense GUCCGCUGAUCUCCUGGGATT (SEQ ID NO: 45), antisense UCCCAGGAGAUCAGCGGACTT (SEQ ID NO: 209) (sugars from the 5' end r19 d2, backbone not given here) | 1.39 fold | 0.48 log2
5 | RAG7-147: saRNA duplex; sense UUUCUGCUUUUCCUGCUCUTT (SEQ ID NO: 66), antisense AGAGCAGGAAAAGCAGAAATT (SEQ ID NO: 230) (sugars from the 5' end r19 d2, backbone not given here) | 1.31 fold | 0.39 log2
6 | RAG7-884: saRNA duplex; sense CAGAAGUAAAGUGUUCUCGTT (SEQ ID NO: 101), antisense CGAGAACACUUUACUUCUGTT (SEQ ID NO: 265) (sugars from the 5' end r19 d2, backbone not given here) | 1.22 fold | 0.28 log2
7 | RAG7-735: saRNA duplex; sense GGGUUUAACGCAUUGUGAUTT (SEQ ID NO: 114), antisense AUCACAAUGCGUUAAACCCTT (SEQ ID NO: 278) (sugars from the 5' end r19 d2, backbone not given here) | 1.19 fold | 0.25 log2
8 | RAG7-32: saRNA duplex; sense UUGCACCCGGUCUUCUUGCTT (SEQ ID NO: 44), antisense GCAAGAAGACCGGGUGCAATT (SEQ ID NO: 208) (sugars from the 5' end r19 d2, backbone not given here) | 1.40 fold | 0.49 log2
9 | RAG7-909: saRNA duplex; sense UUGAAAGCUCAAAGCUAUGTT (SEQ ID NO: 23), antisense CAUAGCUUUGAGCUUUCAATT (SEQ ID NO: 187) (sugars from the 5' end r19 d2, backbone not given here) | 1.53 fold | 0.61 log2
10 | RAG7-180: saRNA duplex; sense UCAAUUUGCCUUUGACCUUTT (SEQ ID NO: 58), antisense AAGGUCAAAGGCAAAUUGATT (SEQ ID NO: 222) (sugars from the 5' end r19 d2, backbone not given here) | 1.35 fold | 0.43 log2
11 | RAG7-916: saRNA duplex; sense CUCUUCUUUGAAAGCUCAATT (SEQ ID NO: 33), antisense UUGAGCUUUCAAAGAAGAGTT (SEQ ID NO: 197) (sugars from the 5' end r19 d2, backbone not given here) | 1.48 fold | 0.56 log2
12 | RAG7-142: saRNA duplex; sense GCUUUUCCUGCUCUUUGUCTT (SEQ ID NO: 164), antisense GACAAAGAGCAGGAAAAGCTT (SEQ ID NO: 328) (sugars from the 5' end r19 d2, backbone not given here) | 1.10 fold | 0.14 log2
13 | RAG7-710: saRNA duplex; sense GUUUUCUUCUCAGCCCAGGTT (SEQ ID NO: 122), antisense CCUGGGCUGAGAAGAAAACTT (SEQ ID NO: 286) (sugars from the 5' end r19 d2, backbone not given here) | 1.18 fold | 0.24 log2
14 | RAG7-195: saRNA duplex; sense AGGUGCCUUCUUGUCUCAATT (SEQ ID NO: 28), antisense UUGAGACAAGAAGGCACCUTT (SEQ ID NO: 192) (sugars from the 5' end r19 d2, backbone not given here) | 1.51 fold | 0.59 log2
15 | RAG7-145: saRNA duplex; sense UCUGCUUUUCCUGCUCUUUTT (SEQ ID NO: 9), antisense AAAGAGCAGGAAAAGCAGATT (SEQ ID NO: 173) (sugars from the 5' end r19 d2, backbone not given here) | 1.71 fold | 0.77 log2
16 | RAG7-722: saRNA duplex; sense UGUGAUAGUCCCGUUUUCUTT (SEQ ID NO: 135), antisense AGAAAACGGGACUAUCACATT (SEQ ID NO: 299) (sugars from the 5' end r19 d2, backbone not given here) | 1.15 fold | 0.21 log2
17 | RAG7-182: saRNA duplex; sense UCUCAAUUUGCCUUUGACCTT (SEQ ID NO: 85), antisense GGUCAAAGGCAAAUUGAGATT (SEQ ID NO: 249) (sugars from the 5' end r19 d2, backbone not given here) | 1.26 fold | 0.33 log2
18 | RAG7-745: saRNA duplex; sense AAAACCUCCUGGGUUUAACTT (SEQ ID NO: 154), antisense GUUAAACCCAGGAGGUUUUTT (SEQ ID NO: 318) (sugars from the 5' end r19 d2, backbone not given here) | 1.11 fold | 0.15 log2
19 | RAG7-184: saRNA duplex; sense UGUCUCAAUUUGCCUUUGATT (SEQ ID NO: 16), antisense UCAAAGGCAAAUUGAGACATT (SEQ ID NO: 180) (sugars from the 5' end r19 d2, backbone not given here) | 1.59 fold | 0.67 log2
20 | RAG7-687: saRNA duplex; sense AUGCAUCCUCAUCUAUGCATT (SEQ ID NO: 162), antisense UGCAUAGAUGAGGAUGCAUTT (SEQ ID NO: 326) (sugars from the 5' end r19 d2, backbone not given here) | 1.10 fold | 0.14 log2
21 | RAG7-706: saRNA duplex; sense UCUUCUCAGCCCAGGUCCUTT (SEQ ID NO: 15), antisense AGGACCUGGGCUGAGAAGATT (SEQ ID NO: 179) (sugars from the 5' end r19 d2, backbone not given here) | 1.63 fold | 0.70 log2
22 | RAG7-850: saRNA duplex; sense UUGAAAGGUUCCGAGGGGCTT (SEQ ID NO: 46), antisense GCCCCUCGGAACCUUUCAATT (SEQ ID NO: 210) (sugars from the 5' end r19 d2, backbone not given here) | 1.39 fold | 0.47 log2
23 | RAG7-911: saRNA duplex; sense CUUUGAAAGCUCAAAGCUATT (SEQ ID NO: 160), antisense UAGCUUUGAGCUUUCAAAGTT (SEQ ID NO: 324) (sugars from the 5' end r19 d2, backbone not given here) | 1.11 fold | 0.15 log2
24 | RAG7-776: saRNA duplex; sense UAGCAUCGAGUGGUAUUUUTT (SEQ ID NO: 56), antisense AAAAUACCACUCGAUGCUATT (SEQ ID NO: 220) (sugars from the 5' end r19 d2, backbone not given here) | 1.35 fold | 0.44 log2
25 | RAG7-676: saRNA duplex; sense UCUAUGCAGGGCUGUUAUCTT (SEQ ID NO: 83), antisense GAUAACAGCCCUGCAUAGATT (SEQ ID NO: 247) (sugars from the 5' end r19 d2, backbone not given here) | 1.26 fold | 0.33 log2
26 | RAG7-31: saRNA duplex; sense UGCACCCGGUCUUCUUGCCTT (SEQ ID NO: 94), antisense GGCAAGAAGACCGGGUGCATT (SEQ ID NO: 258) (sugars from the 5' end r19 d2, backbone not given here) | 1.23 fold | 0.30 log2
27 | RAG7-185: saRNA duplex; sense UUGUCUCAAUUUGCCUUUGTT (SEQ ID NO: 116), antisense CAAAGGCAAAUUGAGACAATT (SEQ ID NO: 280) (sugars from the 5' end r19 d2, backbone not given here) | 1.19 fold | 0.25 log2
